What was measured:
[1] = tested on: tobacco budworm (Heliothis virescens); details: 2500 ppm; eggs sprayed, 6 days
Sphaerotheca fuliginea = assay: Use Example 8: protective action on cucumber leaves; format: in vivo; details: 250 ppm (printed for RC 3 only); cucumber seedlings sprayed 1 day before inoculation; after seven days; untreated plants 90% infected
Description: After inoculation, the trial plants were transferred to a green house.

Alternaria solani = assay: Use Example 2: early blight of tomato, greenhouse, spores in 2% biomalt; format: in vivo; details: 250 ppm; tomato plants sprayed 1 day before inoculation; assessed after 5 days; untreated plants 90% infected
Experimental: The next day, the treated plants were inoculated with a spore suspension of Alternaria solani which contained 0.17×10^6 spores/ml in a 2% aqueous biomalt solution. The test plants were then placed in a water vapor-saturated chamber at temperatures of from 20 to 22° C. After 5 days the disease on the untreated infected control plants had developed to such an extent that the infection of all plants could be determined visually in %.

Phytophthora infestans = format: in vivo; details: 250 ppm; tomato plants, sprayed 1 day before inoculation; after six days; untreated plants 90% infected

Row | SMILES | infection (% diseased leaf area) (Sphaerotheca fuliginea) | infection (Alternaria solani) | other results
1 | O=S(=O)(NCc1ccncn1)c1ccc(-c2ccc(Cl)cc2Cl)cc1 [Example 54] | – | – | mortality [1]: at least 75%
2 | COc1nccc(CNS(=O)(=O)c2ccc(-c3ccc(Cl)cc3)cc2)n1 [Example 88] | no infection | – | –
3 | O=S(=O)(NCc1ccncn1)c1ccc(Oc2ccc(Cl)cc2)cc1 [Example 199] | – | less than or equal to 5% | –
4 | O=S(=O)(NCc1ccncc1)c1ccc(Oc2ccc(Cl)cc2)cc1 [RC 1] | – | 40% | –
5 | O=S(=O)(NCc1ccncc1)c1ccc(-c2ccc(Cl)cc2)cc1 [RC 2] | – | – | infection (% diseased leaf area) (Phytophthora infestans): 90%
6 | COc1cc(CNS(=O)(=O)c2ccc(-c3ccc(Cl)cc3)cc2)ccn1 [RC 3] | 90% | – | –
